Values after ≈ are worked out from the molar mass of the structure shown.
Assays:
Bac.Subt.ATCC 6633 = assay: agar serial dilution test; assay type: cell-based, Bacillus subtilis; conditions: Bacillus subtilis, ATCC6633, 24 h, agar serial dilution, 24 hours, 37° C.; read-out: minimal inhibitory concentration (MIC)
Staph.aureus A 321 = assay: agar serial dilution test; assay type: cell-based, Staphylococcus aureus; conditions: Staphylococcus aureus, A321, 24 h, agar serial dilution, 24 hours, 37° C.; read-out: minimal inhibitory concentration (MIC)
Staph.aureus A 2000 [1] = assay: agar serial dilution test; assay type: cell-based, Staphylococcus aureus; conditions: Staphylococcus aureus, A2000, 24 h, agar serial dilution, 24 hours, 37° C.; read-out: minimal inhibitory concentration (MIC)
Staph.aureus A 2001 [2] = assay: agar serial dilution test; assay type: cell-based, Staphylococcus aureus; conditions: Staphylococcus aureus, A2001, 24 h, agar serial dilution, 24 hours, 37° C.; read-out: minimal inhibitory concentration (MIC)
Strep. faec. L 80 = assay: agar serial dilution test; assay type: cell-based, Streptococcus faecalis; conditions: Enterococcus faecalis; agar serial dilution, 24 hours, 37° C.; read-out: minimal inhibitory concentration (MIC)
Dipl.pneum. L 54 = assay: agar serial dilution test; assay type: cell-based, Diplococcus pneumoniae; conditions: Streptococcus pneumoniae; agar serial dilution, 24 hours, 37° C.; read-out: minimal inhibitory concentration (MIC)
Past.multo. A 723 = assay: agar serial dilution test; assay type: cell-based, Pasteurella multocida; conditions: Pasteurella multocida; agar serial dilution, 24 hours, 37° C.; read-out: minimal inhibitory concentration (MIC)
Kleb.pneum. A 809 = assay: agar serial dilution test; assay type: cell-based, Klebsiella pneumoniae; conditions: Klebsiella pneumoniae; agar serial dilution, 24 hours, 37° C.; read-out: minimal inhibitory concentration (MIC)
Salm.dubl. P 43 = assay: agar serial dilution test; assay type: cell-based, Salmonella dublin; conditions: Salmonella enterica; agar serial dilution, 24 hours, 37° C.; read-out: minimal inhibitory concentration (MIC)
Esch.coli U 20 = assay: agar serial dilution test; assay type: cell-based, Escherichia coli; conditions: Escherichia coli, U20; agar serial dilution, 24 hours, 37° C.; read-out: minimal inhibitory concentration (MIC)
Pseud.aerug. H 10 = assay: agar serial dilution test; assay type: cell-based; conditions: agar serial dilution, 24 hours, 37° C.; read-out: minimal inhibitory concentration (MIC)
Pseud.aerug. 2396 = assay: agar serial dilution test; assay type: cell-based; conditions: agar serial dilution, 24 hours, 37° C.; read-out: minimal inhibitory concentration (MIC)
[3] = tested on: Pseud.aerug. Wyeth A 1058; assay: agar serial dilution test; assay type: cell-based; conditions: agar serial dilution, 24 hours, 37° C.; read-out: minimal inhibitory concentration (MIC)
Prot.rettg. A 821 [4] = assay: agar serial dilution test; assay type: cell-based, Proteus rettgeri; conditions: Providencia rettgeri, 24 h, agar serial dilution, 24 hours, 37° C.; read-out: minimal inhibitory concentration (MIC)
Prot.mirab. H 3 = assay: agar serial dilution test; assay type: cell-based, Proteus mirabilis; conditions: Proteus mirabilis; agar serial dilution, 24 hours, 37° C.; read-out: minimal inhibitory concentration (MIC)
Prot.mirab. L 93 = assay: agar serial dilution test; assay type: cell-based, Proteus mirabilis; conditions: Proteus mirabilis; agar serial dilution, 24 hours, 37° C.; read-out: minimal inhibitory concentration (MIC)
Prot.mirab. A 1200 = assay: agar serial dilution test; assay type: cell-based, Proteus mirabilis; conditions: Proteus mirabilis, 24 h, agar serial dilution, 24 hours, 37° C.; read-out: minimal inhibitory concentration (MIC)
Prot.morg. 2241 = assay: agar serial dilution test; assay type: cell-based; conditions: 24 h, agar serial dilution, 24 hours, 37° C.; read-out: minimal inhibitory concentration (MIC)
Strep.haem A 1088 = assay: agar serial dilution test; assay type: cell-based, Streptococcus haemolyticus; conditions: Streptococcus, A1088, 24 hours, 37° C., read-out: minimal inhibitory concentration (MIC)
Bruc. Suis A 2126 = assay: agar serial dilution test; assay type: cell-based; conditions: Brucella suis, 24 h, read-out: minimal inhibitory concentration (MIC)
Salm.typh. R 172 = assay: agar serial dilution test; assay type: cell-based; conditions: 24 h, read-out: minimal inhibitory concentration (MIC)
Actinob.equ. T 3 = assay: agar serial dilution test; assay type: cell-based; conditions: 24 hours, 37° C., read-out: minimal inhibitory concentration (MIC)
Staph.aureus A 355 [5] = assay: micro serial dilution test; assay type: cell-based, Staphylococcus aureus; conditions: Staphylococcus aureus, A355; micro serial dilution (in brackets), about 18 hours, 30° C. or 37° C.; penicillinase-producing strain; read-out: minimal inhibitory concentration (MIC)
Staph.aureus A 2000 [6] = assay: micro serial dilution test; assay type: cell-based, Staphylococcus aureus; conditions: Staphylococcus aureus, A2000, 18 h, micro serial dilution (in brackets), about 18 hours, 30° C. or 37° C.; read-out: minimal inhibitory concentration (MIC)
Staph.aureus A 2001 [7] = assay: micro serial dilution test; assay type: cell-based, Staphylococcus aureus; conditions: Staphylococcus aureus, A2001, 18 h, micro serial dilution (in brackets), about 18 hours, 30° C. or 37° C.; read-out: minimal inhibitory concentration (MIC)
Haem.Suis A 2096 = assay: micro serial dilution test; assay type: cell-based; conditions: micro serial dilution (in brackets), about 18 hours, 30° C. or 37° C.; read-out: minimal inhibitory concentration (MIC)
Staph.aureus A 355 [8] = assay: agar serial dilution test; conditions: Staphylococcus aureus, A355, 24 h, read-out: minimal inhibitory concentration (MIC), agar serial dilution, 24 hours, 37° C.; penicillinase-producing strain
Strep.haem. A 266 = assay: agar serial dilution test; assay type: cell-based, Streptococcus haemolyticus; conditions: Streptococcus; agar serial dilution, 24 hours, 37° C.; read-out: minimal inhibitory concentration (MIC)
Haem.infl. A 1030 [9] = assay: agar serial dilution test; assay type: cell-based; conditions: 24 hours, 37° C., read-out: minimal inhibitory concentration (MIC)
Bruc.melit. A 488 = assay: microbe, parasite or virus in culture; assay type: cell-based; conditions: Brucella melitensis, 24 h, read-out: minimal inhibitory concentration (MIC)
Shig.equir. T 3 = assay: agar serial dilution test; assay type: cell-based; conditions: 24 h, 37° C., read-out: minimal inhibitory concentration (MIC)
Haem.infl. A 1030 [10] = assay: micro serial dilution test; assay type: cell-based; conditions: 18 h, micro serial dilution (in brackets), about 18 hours, 30° C. or 37° C.; read-out: minimal inhibitory concentration (MIC)
Salm.typh. R 127 = assay: agar serial dilution test; assay type: cell-based; conditions: 24 h, 37° C., read-out: minimal inhibitory concentration (MIC)
Prot.rettg. A 821 [11] = assay: micro serial dilution test; assay type: cell-based, Proteus rettgeri; conditions: Providencia rettgeri; micro serial dilution (in brackets), about 18 hours, 30° C. or 37° C.; read-out: minimal inhibitory concentration (MIC)
pKa determined in water = assay type: physicochemical

SMILES | MIC (Bac.Subt.ATCC 6633) | MIC (Staph.aureus A 321) | MIC (Staph.aureus A 2000 [1]) | MIC (Staph.aureus A 2001 [2]) | MIC (Strep. faec. L 80) | MIC (Dipl.pneum. L 54) | MIC (Past.multo. A 723) | MIC (Kleb.pneum. A 809) | MIC (Salm.dubl. P 43) | MIC (Esch.coli U 20) | MIC (Pseud.aerug. H 10) | MIC (Pseud.aerug. 2396) | MIC [3] | MIC (Prot.rettg. A 821 [4]) | MIC (Prot.mirab. H 3) | MIC (Prot.mirab. L 93) | MIC (Prot.mirab. A 1200) | MIC (Prot.morg. 2241) | MIC (Staph.aureus A 355 [5]) | MIC (Staph.aureus A 355 [8]) | other results
CCc1nc(CC(=O)N[C@@H]2C(=O)N3C(C(=O)O)=C(CSc4nnc(C)s4)CS[C@H]23)no1 [41 A, Sodium 7-[5-ethyl-1,2,4-oxadiazol-3-yl-acetamido]-3-[5-methyl-1,3,4-thiadiazol-2-yl-mercaptomethyl]-3-cephem-4-carboxylate] | 0.25 µg/mL | 0.25 µg/mL | 0.5 µg/mL | 0.5 µg/mL | 50 µg/mL | 0.75 µg/mL | 1.5 µg/mL | 6 µg/mL | 12.5 µg/mL | 3 µg/mL | 100 µg/mL | 100 µg/mL | 100 µg/mL | 1.5 µg/mL | 100 µg/mL | 6 µg/mL | 100 µg/mL | 100 µg/mL | 0.3 µg/mL | 0.75 µg/mL | MIC (Strep.haem A 1088): 0.06 µg/mL; MIC (Bruc. Suis A 2126): 6 µg/mL; MIC (Salm.typh. R 172): 50 µg/mL; MIC (Actinob.equ. T 3): 12.5 µg/mL; MIC (Staph.aureus A 2000 [6]): 0.23 µg/mL; MIC (Staph.aureus A 2001 [7]): 0.15 µg/mL; MIC (Haem.Suis A 2096): 15 µg/mL
CC1(C)S[C@@H]2[C@H](NC(=O)[C@H](N)c3ccccc3)C(=O)N2[C@H]1C(=O)O [Ampicillin, reference compound] | 0.03 µg/mL (≈ 0.0859 µM) | 0.12 µg/mL (≈ 0.343 µM) | 1.5 µg/mL (≈ 4.29 µM) | 1 µg/mL (≈ 2.86 µM) | 1 µg/mL (≈ 2.86 µM) | 0.06 µg/mL (≈ 0.172 µM) | 0.25 µg/mL (≈ 0.715 µM) | 25 µg/mL (≈ 71.5 µM) | 1.5 µg/mL (≈ 4.29 µM) | 3 µg/mL (≈ 8.59 µM) | 125 µg/mL (≈ 358 µM) | 12.5 µg/mL (≈ 35.8 µM) | > 100 µg/mL | 3 µg/mL (≈ 8.59 µM) | 0.9 µg/mL (≈ 2.58 µM) | 0.15 µg/mL (≈ 0.429 µM) |  | 12.5 µg/mL (≈ 35.8 µM) |  | 6 µg/mL (≈ 17.2 µM) | MIC (Strep.haem. A 266): < 0.015 µg/mL; MIC (Haem.infl. A 1030 [9]): < 125 µg/mL; MIC (Bruc.melit. A 488): 1 µg/mL (≈ 2.86 µM); MIC (Shig.equir. T 3): 1 µg/mL (≈ 2.86 µM); MIC (Haem.infl. A 1030 [10]): 0.5 µg/mL (≈ 1.43 µM)
Cc1nnc(SCC2=C(C(=O)O)N3C(=O)[C@@H](NC(=O)Cn4cnnn4)[C@H]3SC2)s1 [Cephazolin, reference compound] | 0.25 µg/mL (≈ 0.55 µM) | 0.25 µg/mL (≈ 0.55 µM) | 0.75 µg/mL (≈ 1.65 µM) | 0.5 µg/mL (≈ 1.1 µM) | 12.5 µg/mL (≈ 27.5 µM) | 0.25 µg/mL (≈ 0.55 µM) | 1.5 µg/mL (≈ 3.3 µM) | 1.5 µg/mL (≈ 3.3 µM) | 1.5 µg/mL (≈ 3.3 µM) | 1.5 µg/mL (≈ 3.3 µM) | > 100 µg/mL | > 100 µg/mL | > 100 µg/mL |  | 6 µg/mL (≈ 13.2 µM) | 1.5 µg/mL (≈ 3.3 µM) | 6 µg/mL (≈ 13.2 µM) | 25 µg/mL (≈ 55 µM) | 0.6 µg/mL (≈ 1.32 µM) | 1.5 µg/mL (≈ 3.3 µM) | MIC (Salm.typh. R 127): 3 µg/mL (≈ 6.6 µM); MIC (Staph.aureus A 2000 [6]): 0.9 µg/mL (≈ 1.98 µM); MIC (Staph.aureus A 2001 [7]): 0.45 µg/mL (≈ 0.99 µM); MIC (Prot.rettg. A 821 [11]): 1.2 µg/mL (≈ 2.64 µM)
Cc1noc(CC(=O)O)n1 [Example 1, 3-methyl-1,2,4-oxadiazol-5-yl-acetic acid] |  |  |  |  |  |  |  |  |  |  |  |  |  |  |  |  |  |  |  |  | pKa (pKa determined in water): 3.64
